Earlier results on 4 compounds are cited in patent publication US20100183693A1 (priority 2005, published 2010).

“Also recorded” adds a separate entry of the source. Where two headings read alike, the source gives them in different places.

Turning to `CC1(C)C(=O)N(Cl)C(=O)N1Br` [BCDMH, bromo-chlorodimethyl hydantoin], the “Effectiveness of Biocides (rank order)” value by setting is: (pH 6.8) “BCDMH < ozone; also recorded: ClO2 < HOCl + NaBr < BCDMH < Cl2 <”; (pH 8) “HOCl + NaBr < ClO2 < BCDMH < Cl2 <”.

Consider `[Na+].[O-]Cl` [NaOCl], for which the “Effectiveness of Biocides (rank order)” value runs as follows: (pH 6.8) “Cl2 < NaOCl < HOCl + NaBr < ClO2 <; also recorded: NaOCl < ozone”; (pH 8) “NaOCl < ozone”.

In the case of `O=[O+][O-]` [Sample O3, ozone], the “Effectiveness of Biocides (rank order)” value (pH 6.8) is “BCDMH < ozone; also recorded: NaOCl < ozone” and the “Effectiveness of Biocides (rank order)” value (pH 8) was “NaOCl < ozone”.

Regarding `[O][Cl+][O-]` [ClO2, chlorine dioxide], the “Effectiveness of Biocides (rank order)” value (pH 6.8) is listed as “Cl2 < NaOCl < HOCl + NaBr < ClO2 <; also recorded: ClO2 < HOCl + NaBr < BCDMH < Cl2 <” and the “Effectiveness of Biocides (rank order)” value (pH 8) is reported as “HOCl + NaBr < ClO2 < BCDMH < Cl2 <”.
